# Numbers after ± are expanded uncertainties.
# Conditions: 363.15 K; Liquid
row,vapor or sublimation pressure,SMILES
1,2.1 ± 0.09 kPa [middle of 4 runs],CNC=O [N-methylformamide]
2,131.21 ± 1.7 kPa,CC#N [acetonitrile]
3,137.28 ± 1.8 kPa,c1ccccc1 [benzene]
4,188.05 ± 2.4 kPa,CCCCCC [hexane]

row,SMILES,vapor or sublimation pressure
1,Clc1ccccc1 [chlorobenzene],28.33 ± 0.42 kPa
